For orientation: IC50 means the concentration at which inhibition is half-maximal.

The results in this text go back to US4738963A, “Method for the treatment of incontinence in mammals” (Beecham Group p.l.c., priority 1985, dated 1988).

What all share (assay type): cell-based
Experiment [1] concerns rat urinary bladder (detrusor) strip. In words: Rat Detrusor Strip Screen: inhibition of electrically induced isometric contractions. The method, then: Rat Detrusor Strip Screen
Male Wistar Charles River rats (Crl: WI BR) weighing 300-350 g were used.
The urinary bladder was removed and a longitudinal strip 3 mm wide was cut from the urethra to the apex of the bladder.
The strip was immediately immersed in a 20 ml bath containing Tyrode with double millimolar concentration of glucose (11.1 instead of 5.55) and with addition of sucrose (13.3 millimolar), kept at 37° C. and aerated with a mixture of O2 95% and CO2 5%.
Tyrode composition was (mM): NaCl 136.8, KCl 2.68, CaCl2 1.80, MgSO4.7H2 O 1.05, NaH2 PO4.H2 O 0.41, NaHCO3 11.9, glucose 11.1 sucrose 13.3. The strip was in direct contact with one of the two platinum electrodes placed on the top and bottom of the organ bath. Placed under an initial tension of 2 g, the strip was then allowed to relax until a baseline of about 1 g. After a 5 min equilibration period isometric contractions were induced by a GRASS S88 2 channel stimulator using the following parameters trains of pulses of 2 sec duration each every 100 sec; square wave pulse of volts (60-70); duration 0.7 ms and 30 Hz.
When the contractions became constant (60-90 min), the strips were exposed to the test compound. The isometric contractions were measured with a Basile DYl force transducer connect to Battaglia Rangoni 4 channel recorder. The results are expressed as per cent of contraction inhibition.

Experiment [2] deals with Rabbit isolated mesenteric artery. In words: Rabbit isolated mesenteric artery: relaxation of contractions due to KCl. As to conditions: Oryctolagus cuniculus. The method, then: (2) Rabbit isolated mesenteric artery.
Mesenteric arteries (3 mm rings) were removed from male New Zealand White rabbits and mounted, at a resting tension of 1.5-2.0 g, in a 10 ml organ bath containing a Ringer solution, at 37° C., of the following composition (mM): NaCl 120.8; KCl 5.9; CaCl2 2.5; MgCl2 1.2; HEPES 5.8; glucose 11.5. The bathing solution was bubbled with a 95% oxygen and 5% carbon dioxide mixture. Each preparation was allowed 1-11/2h to equilibrate before the addition of either 30 or 90 mM KCl to contract the tissue. The ability of test compound to relax the sustained contraction due to KCL was determined by assessing the % reduction (mean± s.e.m.; 4-9 tissues) produced by varying concentrations of test compound.

In experiment [3] the test system is Rat isolated portal vein. In words: Rat isolated portal vein: spontaneous contractions and contractions due to added calcium. The following applies: 0.25 h. The method, then:
(1) Rat isolated portal vein.
Male Sprague Dawley rats (250-350) were killed by cervical dislocation. Portal veins (2-3 cm in length) were set up under 0.8-1 g tension in a 10 ml organ bath containing Krebs-Henseleit solution, at 37° C., of the following composition (mM): NaCl 118, NaHCO3 25, glucose 5, KH2 PO4 1.18, KCl 4.69, MgSO4 0.59, CaCl2.H2 O 1.87. The tissue was aerated with a 95% oxygen and 5% carbon dioxide mixture. Isometric tension was recorded using a Devices strain gauge and recorder. Each preparation was allowed 1 h to equilibrate before the addition of test compound. The ability of a compound to inhibit the contractions due to added calcium (3 mM CaCl2) was determined in tissues bathed in Krebs-Henseleit solution containing 0.05 mM CaCl2 (in order to reduce spontaneous contractions). Then percentage inhibition (mean± s.e.m.; 6-9 tissues) of the amplitude of the spontaneous contractions, and contractions due to added calcium, was determined after 15 min contact time with test compound.

Where two headings read alike, the source gives them in different places.

With `CC1(C)C=C(N2CCCC2=O)c2cc(C#N)ccc2O1` [Compound 2, 6-cyano-2,2-dimethyl-4-(2-oxo-1-pyrrolidinyl)-2H-1-benzopyran], in experiment [1] (Molar Conc 1 × 10^-5), the Mean % inhibition is listed as -59.7%.

Take `CC1(C)Oc2ccc(C#N)cc2[C@@H](N2CCCC2=O)[C@@H]1O` (relative stereo) [Compound 1, 6-cyano-3,4-dihydro-2,2-dimethyl-trans-4-(2-oxo-1-pyrrolidinyl)-2H-benzo[b]pyran-3-ol]: the IC50 in experiment [2] (sustained contraction due to 30 mM KCl, read-out: IC50 30 mM KCl) is 510 nM; in experiment [2] (sustained contraction due to 90 mM KCl, read-out: IC50 90 mM KCl), > 10000 nM; in experiment [3] (amplitude of spontaneous contractions, 15 min contact time, read-out: IC50 Spontaneous (contractions)) it was 120 nM; in experiment [3] (contractions due to added calcium (3 mM CaCl2) in Krebs-Henseleit with 0.05 mM CaCl2, 15 min contact time, read-out: IC50 Ca^2+ (3 mM)), 150 nM. In addition, the Mean % inhibition in experiment [1] (Molar Conc 1 × 10^-5) is recorded as -46.4%.

For `CC1(C)Oc2ccc(C#N)cc2[C@@H](N2CCNCC2=O)[C@@H]1O` (relative stereo) [Compound 5, 6-cyano-3,4-dihydro-2,2-dimethyl-trans 4-(2-oxo-1-piperazinyl)-2H-benzo[t]pyran-3-ol], in experiment [1] (Molar Conc 1 × 10^-5), the Mean % inhibition is given as -37.2%.

For the compound `CNC(=O)N[C@@H]1c2cc(C#N)ccc2OC(C)(C)[C@H]1O` (relative stereo) [Compound 6, trans-6-cyano-3,4-dihydro-2,2-dimethyl-4-(N-methylureido)-2H-1-benzo[b]pyran-3-ol], the Mean % inhibition in experiment [1] (Molar Conc 3 × 10^-5) is -44.2%.

On to `CC1(C)Oc2ccc(C#N)cc2[C@@H](N2CCCCC2=O)[C@@H]1O` (relative stereo) [Compound 3], for which the Mean % inhibition in experiment [1] (Molar Conc 1 × 10^-6) is on record as -34.2%.

In the case of `CC(=O)N[C@@H]1c2cc(C#N)ccc2OC(C)(C)[C@H]1O` (relative stereo) [Compound 4, trans-4-N-acetylamino-6-cyano-3,4-dihydro-2,2-dimethyl-2H-benzo[b]pyran-3-ol], the Mean % inhibition in experiment [1] (Molar Conc 3 × 10^-5) is reported as -32.9%.
